From ChEMBL document CHEMBL1152560, “Substituted 2-arylbenzothiazoles as kinase inhibitors: hit-to-lead optimization” (Bioorg Med Chem, 2009) come the findings set out here.

For experiment [1], the target named is Serine/threonine-protein kinase PLK3 (Homo sapiens) (UniProt Q9H4B4). As to the kind of experiment: Residual activity of PLK3 at 10 uM by microplate scintillation counting.
The target of experiment [2] is T1, Beta-adrenergic receptor kinase 1 (Homo sapiens) (UniProt P25098).
T1 sequence (whole entry): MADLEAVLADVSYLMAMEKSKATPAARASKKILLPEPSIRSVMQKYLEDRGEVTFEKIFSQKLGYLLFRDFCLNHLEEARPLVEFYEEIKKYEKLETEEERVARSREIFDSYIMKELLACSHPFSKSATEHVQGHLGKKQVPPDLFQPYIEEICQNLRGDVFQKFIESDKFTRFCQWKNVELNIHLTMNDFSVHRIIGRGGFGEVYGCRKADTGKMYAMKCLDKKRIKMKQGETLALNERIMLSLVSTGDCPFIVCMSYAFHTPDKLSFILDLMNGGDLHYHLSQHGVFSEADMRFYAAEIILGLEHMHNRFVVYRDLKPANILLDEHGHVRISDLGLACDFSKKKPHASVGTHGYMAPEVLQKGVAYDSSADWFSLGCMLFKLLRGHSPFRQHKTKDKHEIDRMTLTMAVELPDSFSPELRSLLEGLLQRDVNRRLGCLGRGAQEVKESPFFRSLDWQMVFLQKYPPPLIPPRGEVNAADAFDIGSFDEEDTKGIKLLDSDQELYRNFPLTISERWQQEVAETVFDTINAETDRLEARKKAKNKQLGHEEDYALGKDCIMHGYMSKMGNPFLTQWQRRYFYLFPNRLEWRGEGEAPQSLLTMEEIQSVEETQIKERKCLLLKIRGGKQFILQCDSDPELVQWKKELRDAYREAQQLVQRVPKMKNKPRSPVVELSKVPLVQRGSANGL
As to the kind of experiment: Residual activity of GRK2 at 0.1 uM by microplate scintillation counting.

Experiment [3] deals with Tyrosine-protein kinase Blk (Homo sapiens) (UniProt P51451). Nature of the experiment: Residual activity of BLK at 10 uM by microplate scintillation counting.
Chain of Tyrosine-protein kinase Blk (Homo sapiens) (P51451 2-505 limits assumed): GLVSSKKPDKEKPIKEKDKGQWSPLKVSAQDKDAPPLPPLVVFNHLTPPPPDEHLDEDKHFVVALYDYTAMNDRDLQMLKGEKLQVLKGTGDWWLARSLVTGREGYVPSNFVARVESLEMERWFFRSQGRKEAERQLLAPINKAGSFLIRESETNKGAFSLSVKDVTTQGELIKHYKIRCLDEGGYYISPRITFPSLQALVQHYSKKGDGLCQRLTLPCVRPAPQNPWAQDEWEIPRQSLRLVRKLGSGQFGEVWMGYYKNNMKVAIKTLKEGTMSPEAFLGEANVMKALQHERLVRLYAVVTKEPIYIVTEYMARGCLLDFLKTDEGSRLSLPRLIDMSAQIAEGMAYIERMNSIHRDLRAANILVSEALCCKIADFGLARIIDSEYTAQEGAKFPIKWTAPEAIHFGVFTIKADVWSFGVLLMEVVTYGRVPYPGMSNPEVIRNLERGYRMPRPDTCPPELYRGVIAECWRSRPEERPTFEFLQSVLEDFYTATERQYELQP
In experiment [4] the target is T2, Testis-specific serine/threonine-protein kinase 1 (Homo sapiens) (UniProt Q9BXA7).
T2 sequence (whole entry): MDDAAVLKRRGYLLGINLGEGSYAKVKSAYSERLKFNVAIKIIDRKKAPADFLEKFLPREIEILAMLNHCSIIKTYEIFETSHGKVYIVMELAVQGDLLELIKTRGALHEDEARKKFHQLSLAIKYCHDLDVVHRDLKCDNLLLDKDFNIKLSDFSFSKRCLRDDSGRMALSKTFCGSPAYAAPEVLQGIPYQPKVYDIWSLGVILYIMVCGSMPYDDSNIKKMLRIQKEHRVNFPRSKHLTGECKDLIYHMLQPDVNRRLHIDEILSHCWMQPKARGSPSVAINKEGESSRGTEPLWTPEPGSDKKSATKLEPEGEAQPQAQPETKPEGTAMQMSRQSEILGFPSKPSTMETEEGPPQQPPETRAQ
Nature of the experiment: Residual activity of TSSK1 at 1 uM by microplate scintillation counting.

The target of experiment [5] is Serine/threonine-protein kinase SIK2 (Homo sapiens) (UniProt Q9H0K1). Nature of the experiment: Residual activity of SNF1LK2 at 0.1 uM by microplate scintillation counting.
Chain of Serine/threonine-protein kinase SIK2 (Homo sapiens) (Q9H0K1 whole entry, looked up): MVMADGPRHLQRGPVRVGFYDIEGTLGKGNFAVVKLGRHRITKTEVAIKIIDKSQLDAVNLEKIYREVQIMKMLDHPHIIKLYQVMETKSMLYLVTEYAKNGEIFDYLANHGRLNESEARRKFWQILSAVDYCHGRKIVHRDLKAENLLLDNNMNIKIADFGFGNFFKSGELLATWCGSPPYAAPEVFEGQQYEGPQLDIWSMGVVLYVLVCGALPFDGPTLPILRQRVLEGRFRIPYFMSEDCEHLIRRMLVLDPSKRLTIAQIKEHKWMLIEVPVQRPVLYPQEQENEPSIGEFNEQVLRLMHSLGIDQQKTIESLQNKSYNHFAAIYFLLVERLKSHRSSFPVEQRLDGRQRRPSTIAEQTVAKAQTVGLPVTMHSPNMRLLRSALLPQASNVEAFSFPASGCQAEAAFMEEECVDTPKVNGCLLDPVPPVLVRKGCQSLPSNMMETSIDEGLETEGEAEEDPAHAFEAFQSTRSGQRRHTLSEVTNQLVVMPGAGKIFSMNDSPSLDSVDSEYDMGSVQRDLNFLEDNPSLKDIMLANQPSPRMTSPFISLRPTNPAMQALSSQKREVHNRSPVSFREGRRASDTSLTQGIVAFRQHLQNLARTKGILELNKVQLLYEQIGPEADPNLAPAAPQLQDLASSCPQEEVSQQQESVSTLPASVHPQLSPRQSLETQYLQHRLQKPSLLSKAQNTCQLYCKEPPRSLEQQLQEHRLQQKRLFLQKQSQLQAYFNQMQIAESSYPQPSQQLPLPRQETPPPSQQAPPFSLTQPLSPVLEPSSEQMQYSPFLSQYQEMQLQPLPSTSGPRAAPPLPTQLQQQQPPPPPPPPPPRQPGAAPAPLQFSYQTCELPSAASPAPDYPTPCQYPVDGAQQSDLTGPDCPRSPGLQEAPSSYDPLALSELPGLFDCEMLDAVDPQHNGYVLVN
The target of experiment [6] is T3, Serine/threonine-protein kinase 4 (Homo sapiens) (UniProt Q13043).
T3 sequence (whole entry): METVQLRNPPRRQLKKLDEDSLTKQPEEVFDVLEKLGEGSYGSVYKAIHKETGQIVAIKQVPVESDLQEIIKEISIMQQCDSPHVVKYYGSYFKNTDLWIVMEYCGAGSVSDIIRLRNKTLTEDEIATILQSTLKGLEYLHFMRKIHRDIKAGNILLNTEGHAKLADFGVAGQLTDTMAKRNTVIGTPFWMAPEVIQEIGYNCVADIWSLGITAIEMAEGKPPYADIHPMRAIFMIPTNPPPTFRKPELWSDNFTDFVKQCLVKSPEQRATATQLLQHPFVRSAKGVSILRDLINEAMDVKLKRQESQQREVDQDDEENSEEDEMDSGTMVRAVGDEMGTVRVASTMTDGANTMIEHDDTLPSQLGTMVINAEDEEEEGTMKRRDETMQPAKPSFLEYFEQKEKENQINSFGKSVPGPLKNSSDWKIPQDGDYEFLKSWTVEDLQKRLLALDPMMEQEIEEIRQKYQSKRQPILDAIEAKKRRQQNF
As to the kind of experiment: Residual activity of MST1 at 0.1 uM by microplate scintillation counting.

Experiment [7] concerns the target 5'-AMP-activated protein kinase catalytic subunit alpha-1 (Homo sapiens) (UniProt Q13131). Nature of the experiment: Residual activity of AMPK-alpha1 fl at 10 uM by microplate scintillation counting.
A short description of experiment [8]: Residual activity of PKA at 10 uM by microplate scintillation counting.
Experiment [9] has as its target Serine/threonine-protein kinase 33 (Homo sapiens) (UniProt Q9BYT3). Nature of the experiment: Residual activity of STK33 at 10 uM by microplate scintillation counting.
Experiment [10] addresses Tyrosine-protein kinase Lck (Homo sapiens) (UniProt P06239). Nature of the experiment: Residual activity of LCK at 0.1 uM by microplate scintillation counting.
Experiment [11] has as its target Ribosomal protein S6 kinase alpha-3 (Homo sapiens) (UniProt P51812). As to the kind of experiment: Residual activity of RPS6KA3 at 1 uM by microplate scintillation counting.

Chain of Tyrosine-protein kinase Lck (Homo sapiens) (P06239 2-509 limits assumed): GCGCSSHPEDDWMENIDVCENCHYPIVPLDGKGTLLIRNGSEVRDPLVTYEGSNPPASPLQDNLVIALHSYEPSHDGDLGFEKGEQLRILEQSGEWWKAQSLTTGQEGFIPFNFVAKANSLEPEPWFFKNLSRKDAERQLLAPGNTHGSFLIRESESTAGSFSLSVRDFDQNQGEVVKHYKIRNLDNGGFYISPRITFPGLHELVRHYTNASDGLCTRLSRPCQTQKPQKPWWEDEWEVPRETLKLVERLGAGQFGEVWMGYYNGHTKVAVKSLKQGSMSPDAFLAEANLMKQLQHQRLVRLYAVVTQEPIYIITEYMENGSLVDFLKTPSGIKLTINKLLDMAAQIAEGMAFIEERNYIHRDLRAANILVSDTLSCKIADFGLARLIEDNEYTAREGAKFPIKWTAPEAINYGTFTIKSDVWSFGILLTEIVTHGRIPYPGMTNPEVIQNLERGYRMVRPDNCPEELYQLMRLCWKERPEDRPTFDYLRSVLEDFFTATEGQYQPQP
Chain of Serine/threonine-protein kinase 33 (Homo sapiens) (Q9BYT3 whole entry, looked up): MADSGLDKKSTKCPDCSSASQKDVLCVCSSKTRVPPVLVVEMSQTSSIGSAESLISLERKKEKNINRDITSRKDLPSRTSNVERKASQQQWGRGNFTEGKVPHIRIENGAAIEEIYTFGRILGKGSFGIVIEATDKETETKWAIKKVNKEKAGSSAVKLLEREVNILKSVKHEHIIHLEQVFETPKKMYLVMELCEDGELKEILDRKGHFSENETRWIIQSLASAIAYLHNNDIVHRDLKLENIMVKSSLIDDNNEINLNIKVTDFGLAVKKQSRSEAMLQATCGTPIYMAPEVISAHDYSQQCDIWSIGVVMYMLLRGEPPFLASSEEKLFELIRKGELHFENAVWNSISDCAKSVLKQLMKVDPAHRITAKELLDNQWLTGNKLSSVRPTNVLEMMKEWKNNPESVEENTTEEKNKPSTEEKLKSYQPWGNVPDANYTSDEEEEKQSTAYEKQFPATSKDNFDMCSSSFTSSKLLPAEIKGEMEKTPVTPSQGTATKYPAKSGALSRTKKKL
Chain of Ribosomal protein S6 kinase alpha-3 (Homo sapiens) (P51812 whole entry): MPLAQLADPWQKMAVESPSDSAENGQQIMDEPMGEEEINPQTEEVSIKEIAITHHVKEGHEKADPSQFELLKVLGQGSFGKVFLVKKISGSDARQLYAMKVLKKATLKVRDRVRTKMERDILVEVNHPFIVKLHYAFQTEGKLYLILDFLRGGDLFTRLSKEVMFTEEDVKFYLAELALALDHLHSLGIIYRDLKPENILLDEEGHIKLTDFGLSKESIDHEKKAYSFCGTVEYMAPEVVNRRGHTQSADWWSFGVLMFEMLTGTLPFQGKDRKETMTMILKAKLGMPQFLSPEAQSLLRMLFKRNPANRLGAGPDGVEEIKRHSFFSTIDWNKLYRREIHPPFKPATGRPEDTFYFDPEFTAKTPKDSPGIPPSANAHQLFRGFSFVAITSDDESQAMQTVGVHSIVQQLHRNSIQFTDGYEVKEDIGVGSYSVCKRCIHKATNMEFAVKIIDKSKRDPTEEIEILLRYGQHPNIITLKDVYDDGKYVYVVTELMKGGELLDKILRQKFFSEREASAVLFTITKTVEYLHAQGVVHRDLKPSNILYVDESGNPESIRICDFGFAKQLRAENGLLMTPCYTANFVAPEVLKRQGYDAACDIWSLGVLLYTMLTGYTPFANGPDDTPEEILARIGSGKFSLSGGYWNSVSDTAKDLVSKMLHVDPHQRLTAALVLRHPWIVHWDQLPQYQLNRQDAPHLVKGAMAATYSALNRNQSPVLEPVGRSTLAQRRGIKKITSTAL
Chain of Serine/threonine-protein kinase PLK3 (Homo sapiens) (Q9H4B4 whole entry, looked up): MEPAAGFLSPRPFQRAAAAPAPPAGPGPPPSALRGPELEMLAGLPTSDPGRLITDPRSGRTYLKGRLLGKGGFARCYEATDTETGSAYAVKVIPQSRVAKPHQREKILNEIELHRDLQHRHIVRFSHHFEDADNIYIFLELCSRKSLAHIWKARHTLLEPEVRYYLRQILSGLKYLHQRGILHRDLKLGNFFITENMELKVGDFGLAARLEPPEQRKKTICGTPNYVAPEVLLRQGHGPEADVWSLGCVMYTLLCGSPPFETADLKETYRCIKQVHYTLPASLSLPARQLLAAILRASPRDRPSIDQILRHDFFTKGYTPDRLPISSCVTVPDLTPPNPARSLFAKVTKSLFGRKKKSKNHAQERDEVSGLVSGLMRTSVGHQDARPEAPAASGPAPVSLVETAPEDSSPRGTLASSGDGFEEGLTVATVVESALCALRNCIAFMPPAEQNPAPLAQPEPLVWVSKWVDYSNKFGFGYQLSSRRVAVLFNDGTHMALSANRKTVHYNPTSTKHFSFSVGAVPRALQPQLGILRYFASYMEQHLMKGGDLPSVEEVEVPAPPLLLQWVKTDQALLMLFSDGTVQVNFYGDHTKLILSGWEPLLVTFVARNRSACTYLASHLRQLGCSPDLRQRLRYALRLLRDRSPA
Chain of 5'-AMP-activated protein kinase catalytic subunit alpha-1 (Homo sapiens) (Q13131 whole entry, looked up): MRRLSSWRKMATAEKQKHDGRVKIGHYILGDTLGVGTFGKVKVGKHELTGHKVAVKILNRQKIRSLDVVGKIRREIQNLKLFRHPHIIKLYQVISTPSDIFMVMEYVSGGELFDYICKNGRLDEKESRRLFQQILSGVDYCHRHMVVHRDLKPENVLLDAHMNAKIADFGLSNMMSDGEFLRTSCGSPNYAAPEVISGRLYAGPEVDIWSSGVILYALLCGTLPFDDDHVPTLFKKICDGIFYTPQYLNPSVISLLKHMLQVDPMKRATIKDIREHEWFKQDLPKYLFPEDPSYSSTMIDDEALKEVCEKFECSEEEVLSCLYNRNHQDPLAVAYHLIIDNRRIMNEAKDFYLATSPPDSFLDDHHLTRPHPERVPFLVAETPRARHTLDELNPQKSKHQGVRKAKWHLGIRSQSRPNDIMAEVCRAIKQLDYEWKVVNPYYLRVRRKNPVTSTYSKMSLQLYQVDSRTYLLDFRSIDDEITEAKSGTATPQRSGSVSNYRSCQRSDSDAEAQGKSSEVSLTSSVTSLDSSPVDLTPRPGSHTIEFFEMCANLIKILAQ

`COc1cc2c(Oc3ccc(-c4nc5ccccc5s4)cc3F)ncnc2cc1OCCCN1CCN(C)CC1`: the residual activity is 257% in experiment [1]; 89% in [2]; 10% in [3]; 73% in experiment [4]; 88% in experiment [5]; 104% in experiment [6]. For the same molecule, the residual activity is 57% in [7]; 57% in experiment [8]; 94% in [9]; 86% in [10]; 95% in experiment [11].
With `COc1cc2c(Oc3ccc(-c4nc5ccccc5s4)cc3)ncnc2cc1OCCCN1CCN(C)CC1`, the residual activity in [1] was determined as 2%; in experiment [2] it was 95%; in [3], 34%; in experiment [4], 55%; in experiment [5] it was 93%; in experiment [6], 96%. In addition, the residual activity was 61% in experiment [7]; 53% in experiment [8]; 81% in experiment [9]; 92% in [10]; 85% in experiment [11].
For the molecule `COc1cc2c(Oc3ccc(-c4nc5ccccc5s4)cc3)ncnc2cc1OCCCN1CCCC1`, the residual activity in experiment [1] came out at 223%; in [2], 95%; in [3] it was 33%; in experiment [4], 40%; in [5], 80%; in [6] it was 96%. The residual activity in experiment [7] is 73%; in experiment [8], 78%; in experiment [9], 107%; in [10], 104%; in experiment [11] it was 93%.
